Data set [1] relates to mouse. The following applies: in vivo.
Text: An acetaminophen overdose mouse model for drug-induced liver injury was employed to determine the effect of liver injury on the RNA spectrum.
In data set [2] the test system is mouse.
Data set [3] is described as follows: Stability of RNA in plasma after enzyme or detergent treatment, qPCR. The format is in vitro ADME, human. As to the method: The plasma samples were treated with various conditions (indicated on the top of the figure) prior to RNA isolation. The Y-axis represents the relative concentration change compared to no treatment determined by qPCR. The data represents the average changes from 9 plasma samples. The black bars represent the changes of an endogenous miRNA, miR-16, the open bars are exogenous miRNA, miR-263 from mosquitos and the gray bars are the 16S rRNA from Pseudomonas putida.
To explore the stability of exogenous RNA in plasma, we treated the plasma with RNase A from Fermentas™ (Thermo Scientific™, Wilmington, Del.) at a concentration at 1 μg/ml, DNase I (Fermentas™, Thermo Scientific™, Wilmington, Del.) at a concentration of 1 unit/ml, protease K (Fermentas™, Thermo Scientific™, Wilmington, Del.) at a concentration of 0.05 mg/ml, 0.1% Triton™ X 100, or protease K for 20 minutes followed by additional RNase A at 1 μg/ml after heat inactivation of protease K at 70° C. for 10 minutes prior for RNA isolation.
Adding additional RNase caused less reduction compared to protease followed by RNase treatments.
(Quantitative PCR measures a nucleic acid by following its amplification.)

For data set [4], the system named is mouse dicer deficient (DCR −/−) fibroblast cell line. As to the kind of experiment: Transfection of synthetic exogenous RNA into fibroblasts, effect on transcriptome (microarray, pathway enrichment of down-regulated genes). The following applies: 10 nM synthetic RNA, 24 hours; for effects on the cellular transcriptome (gene expression profiles): microarray; for Affected pathways: pathways enriched among down-regulated genes. Type of data set: cell-based. The source says: We transfected several synthetic, double-stranded RNA molecules selected from observed exogenous miRNA sequences and some highly abundant exogenous sequences (bacterial rRNAs) that have potential to form pre-miRNA-like secondary structures (FIG. 7) into a mouse fibroblast cell line.
The mouse dicer deficient (DCR −/−) fibroblast cell line was generated from a conditional cre and floxed Dicer allele transgenic mouse available from Jax (located on the web at jaxmice.jax.org/strain/006001.html) kindly provided by Dr. Jacques Peschon. Part of the RNase III domain encoded in the exon 23 of dicer gene was deleted following cre excision. DCR −/− cells were maintained in Dulbecco's modified Eagle's medium with high glucose. The media was supplemented with 10% FBS, 1% non-essential amino acid, 1% GlutaMAX™. The cells were routinely incubated at 37° C. in a humidified atmosphere with 5% CO2.
Lipofectamine™ RNAiMAX was purchased from Invitrogen (Life Technologies, Carlsbad, Calif.). Custom designed exogenous RNA used in transfection was obtained from Ambion (Life Technologies, Carlsbad, Calif.). DCR −/− cells were seeded at a density of 1×10^5 cells in 6-well tissue culture plates 24 h prior to transfect with 10 nM of synthetic RNAs. Cells exposed to transfection reagents only were used as control. After 24 hours in the transfection media, the cells were harvested for RNA isolation and the transfection efficiency was validated with qPCR.
Effects of exogenous RNAs on transcriptome were assessed by using the Agilent mouse 4×44K microarray (Agilent, Santa Clara, Calif.). Total RNAs were isolated with an miRNeasy® column (Qiagen, Valencia, Calif.), and both Cy3 and Cy5-labeled cRNA samples were prepared with two color labeling kit (Agilent Technologies, Santa Clara, Calif.) and then hybridized at 65° C. for 17 h. Signal intensity was calculated from digitized images captured by a scanner from Agilent (Santa Clara, Calif.), and data analysis was performed by using GeneSpring GX software (Agilent Technologies, Santa Clara, Calif.).
The expression profiles of a number of genes in the cells were affected by some of the exogenous RNA sequences. We verified the changes in levels of some of these affected genes' mRNA by QPCR (FIG. 8).

The text below walks through data of US20140005054A1, “COMPLEX RNA COMPOSITION OF BODILY FLUIDS” (INSTITUTE FOR SYSTEMS BIOLOGY, priority 2012, published 2014).

Take `CC(=O)Nc1ccc(O)cc1` [acetaminophen]: in the data set with mouse [1], the “level of albumin transcript in plasma” value is recorded as “significantly increased”, the “level of apolipoprotein A2 (apoA2) transcript in plasma” value is recorded as “significantly increased”, the “level of transferrin transcript in plasma” value was “significantly increased” and the “number of transcripts in plasma affected” value is “Several hundred”. Moreover, in the data set on mouse [1], the “time course of albumin transcript level in plasma” value is “spiked after 3 hours and decreased over a 24 hour period”; the “time course of apoA2 transcript level in plasma” value was “spiked after 3 hours and decreased over a 24 hour period”; the “time course of transferrin transcript level in plasma” value is reported as “increased to a lesser extent but held reasonably steady over a 24-hour period”. Also, the “histopathology of liver tissues” value in the data set with mouse [2] (acetaminophen overdose) is reported as “typical zoon 3 hepatocyte death”. Moreover, the “histopathology of kidney tissues” value in the data set on mouse [2] (mouse, in vivo) is recorded as “renal tubular injury”.

For the compound “miR-263: exogenous miRNA AAUGGCACUGGAAGAAUUCACGG, miR-263a from mosquito; synthetic form transfected, native form measured in plasma (synthetic double-stranded RNA, chemistry not given here; listed as Culex pipiens)”, the “level of RNA in plasma after treatment” value in data set [3] (0.1% Triton X-100 prior to RNA isolation), in data set [3] (RNase A 1 μg/ml prior to RNA isolation), in data set [3] (protease K 0.05 mg/ml prior to RNA isolation) and in data set [3] (protease K for 20 minutes followed by RNase A 1 μg/ml) was “reduced significantly” in each case. The “effects on the cellular transcriptome (gene expression profiles)” value in data set [4] is given as “did not produce any significant effects”. Also, the Affected pathways result in data set [4] is reported as “No enriched pathway”.

On to “Bantam: synthetic RNA UGAGAUCAUUGUGAAAGCUGAUU, Bantam miRNA from house fly (synthetic double-stranded RNA, chemistry not given here; listed as Musca domestica)”, for which, in data set [4], the “effects on the cellular transcriptome (gene expression profiles)” value was “did not produce any significant effects” and the Affected pathways entry is listed as “No enriched pathway”.
